In PubChem BioAssay (NCI):
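Following 48 hours of exposure in 96-well plates, responses at five concentrations were used to interpolate endpoints linearly. Abbreviation: GI50, concentration required for 50% inhibition of growth. TGI marks complete inhibition of growth.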

Tests used:
Test in all cases: growth of human tumour cells (NCI), 48 h
LOX IMVI melanoma = test system: LOX IMVI melanoma
EKVX NSCLC = test system: EKVX NSCLC
MCF7 breast = test system: MCF7 breast
HOP-92 NSCLC = test system: HOP-92 NSCLC
T-47D breast = test system: T-47D breast
CCRF-CEM leukemia = test system: CCRF-CEM leukemia
HCT-116 colon = test system: HCT-116 colon
UACC-62 melanoma = test system: UACC-62 melanoma
HL-60(TB) leukemia = test system: HL-60(TB) leukemia
PC-3 prostate = test system: PC-3 prostate
SNB-75 CNS = test system: SNB-75 CNS
OVCAR-8 ovarian = test system: OVCAR-8 ovarian
MALME-3M melanoma = test system: MALME-3M melanoma
SF-295 CNS = test system: SF-295 CNS
HT29 colon = test system: HT29 colon
HS 578T breast = test system: HS 578T breast
SF-539 CNS = test system: SF-539 CNS
HCC-2998 colon = test system: HCC-2998 colon
HCT-15 colon = test system: HCT-15 colon
NCI-H460 lung = test system: NCI-H460 lung
IGROV1 ovarian = test system: IGROV1 ovarian
SNB-19 CNS = test system: SNB-19 CNS
SK-MEL-28 melanoma = test system: SK-MEL-28 melanoma
RPMI-8226 leukemia = test system: RPMI-8226 leukemia
SW-620 colon = test system: SW-620 colon
COLO 205 colon = test system: COLO 205 colon
UO-31 renal = test system: UO-31 renal
SK-MEL-2 melanoma = test system: SK-MEL-2 melanoma
A498 renal = test system: A498 renal
SK-OV-3 ovarian = test system: SK-OV-3 ovarian
DU-145 prostate = test system: DU-145 prostate
RXF 393 renal = test system: RXF 393 renal
MDA-MB-435 = test system: MDA-MB-435
K-562 leukemia = test system: K-562 leukemia
786-0 renal = test system: 786-0 renal
TK-10 renal = test system: TK-10 renal
OVCAR-3 ovarian = test system: OVCAR-3 ovarian
M14 melanoma = test system: M14 melanoma
HOP-62 NSCLC = test system: HOP-62 NSCLC
NCI/ADR-RES ovarian = test system: NCI/ADR-RES ovarian
OVCAR-5 ovarian = test system: OVCAR-5 ovarian
NCI-H522 lung = test system: NCI-H522 lung
KM12 colon = test system: KM12 colon
CAKI-1 renal = test system: CAKI-1 renal
A549 NSCLC = test system: A549 NSCLC
U251 CNS = test system: U251 CNS
MDA-MB-231 breast = test system: MDA-MB-231 breast
UACC-257 melanoma = test system: UACC-257 melanoma
SF-268 CNS = test system: SF-268 CNS
SN12C renal = test system: SN12C renal
ACHN renal = test system: ACHN renal
BT-549 breast = test system: BT-549 breast
MOLT-4 leukemia = test system: MOLT-4 leukemia
OVCAR-4 ovarian = test system: OVCAR-4 ovarian
SK-MEL-5 melanoma = test system: SK-MEL-5 melanoma
SR leukemia = test system: SR leukemia
NCI-H226 lung = test system: NCI-H226 lung
NCI-H23 lung = test system: NCI-H23 lung

O=C(/C=C/c1ccccc1Cl)Nc1ncc(Cc2cc(Cl)ccc2Cl)s1 gave a GI50 (LOX IMVI melanoma) of 1.85 µM, a TGI (LOX IMVI melanoma) of over 100 µM and a GI50 (EKVX NSCLC) of 2.4 µM. The TGI (EKVX NSCLC) was over 100 µM, the GI50 (MCF7 breast) was 0.674 µM and the TGI (MCF7 breast) was over 100 µM. It also gave a GI50 (HOP-92 NSCLC) of 1.3 µM, a GI50 (T-47D breast) of 6.72 µM and a TGI (T-47D breast) of over 100 µM. It also gave a GI50 (CCRF-CEM leukemia) of 0.909 µM, a TGI (CCRF-CEM leukemia) of over 100 µM and a GI50 (HCT-116 colon) of 0.939 µM. For the same compound, the TGI (HCT-116 colon) was over 100 µM, the GI50 (UACC-62 melanoma) was 3.27 µM and the TGI (UACC-62 melanoma) was over 100 µM. The GI50 (HL-60(TB) leukemia) was 1.24 µM, the TGI (HL-60(TB) leukemia) was 5.7 µM and the GI50 (PC-3 prostate) was 3.86 µM. For the same compound, the TGI (PC-3 prostate) was over 100 µM, the GI50 (SNB-75 CNS) was 0.576 µM and the TGI (SNB-75 CNS) was 9.82 µM. It also gave a GI50 (OVCAR-8 ovarian) of 4.03 µM, a TGI (OVCAR-8 ovarian) of over 100 µM and a GI50 (MALME-3M melanoma) of 4.54 µM. It also gave a TGI (MALME-3M melanoma) of over 100 µM, a GI50 (SF-295 CNS) of 2.34 µM and a TGI (SF-295 CNS) of 71.2 µM. The GI50 (HT29 colon) was 2.46 µM, the TGI (HT29 colon) was over 100 µM and the GI50 (HS 578T breast) was 1.14 µM. It also gave a GI50 (SF-539 CNS) of 2.79 µM, a TGI (SF-539 CNS) of 13.6 µM and a GI50 (HCC-2998 colon) of 2.71 µM. For the same compound, the TGI (HCC-2998 colon) was over 100 µM, the GI50 (HCT-15 colon) was 0.634 µM and the TGI (HCT-15 colon) was over 100 µM. It also gave a GI50 (NCI-H460 lung) of 3.6 µM, a TGI (NCI-H460 lung) of over 100 µM and a GI50 (IGROV1 ovarian) of 1.31 µM. It also gave a TGI (IGROV1 ovarian) of over 100 µM, a GI50 (SNB-19 CNS) of 4.23 µM and a TGI (SNB-19 CNS) of over 100 µM. For the same compound, the GI50 (SK-MEL-28 melanoma) was 9.29 µM, the TGI (SK-MEL-28 melanoma) was over 100 µM and the GI50 (RPMI-8226 leukemia) was 1.36 µM. For the same compound, the TGI (RPMI-8226 leukemia) was over 63.8 µM, the GI50 (SW-620 colon) was 1.25 µM and the TGI (SW-620 colon) was over 100 µM. The GI50 (COLO 205 colon) was 1.21 µM, the TGI (COLO 205 colon) was over 31.7 µM and the GI50 (UO-31 renal) was 6.52 µM. The TGI (UO-31 renal) was over 100 µM, the GI50 (SK-MEL-2 melanoma) was 3.01 µM and the TGI (SK-MEL-2 melanoma) was over 100 µM. The GI50 (A498 renal) was 0.975 µM, the GI50 (SK-OV-3 ovarian) was 7.39 µM and the TGI (SK-OV-3 ovarian) was over 100 µM. It also gave a GI50 (DU-145 prostate) of 2.04 µM, a TGI (DU-145 prostate) of over 100 µM and a GI50 (RXF 393 renal) of 0.916 µM. For the same compound, the TGI (RXF 393 renal) was 3.46 µM, the GI50 (MDA-MB-435) was 0.263 µM and the TGI (MDA-MB-435) was 0.79 µM. For the same compound, the GI50 (K-562 leukemia) was 0.406 µM, the TGI (K-562 leukemia) was over 100 µM and the GI50 (786-0 renal) was 5.16 µM. For the same compound, the TGI (786-0 renal) was over 100 µM, the GI50 (TK-10 renal) was 7.13 µM and the TGI (TK-10 renal) was over 100 µM. The GI50 (OVCAR-3 ovarian) was 3.44 µM, the TGI (OVCAR-3 ovarian) was over 100 µM and the GI50 (M14 melanoma) was 2.04 µM. It also gave a TGI (M14 melanoma) of over 100 µM, a GI50 (HOP-62 NSCLC) of 6.14 µM and a TGI (HOP-62 NSCLC) of over 100 µM. The GI50 (NCI/ADR-RES ovarian) was 2.99 µM, the TGI (NCI/ADR-RES ovarian) was over 100 µM and the GI50 (OVCAR-5 ovarian) was 2.36 µM. It also gave a TGI (OVCAR-5 ovarian) of over 100 µM, a GI50 (NCI-H522 lung) of 0.7 µM and a TGI (NCI-H522 lung) of 2.56 µM. It also gave a GI50 (KM12 colon) of 1.21 µM, a TGI (KM12 colon) of over 100 µM and a GI50 (CAKI-1 renal) of 4.23 µM. It also gave a TGI (CAKI-1 renal) of over 100 µM, a GI50 (A549 NSCLC) of 2.09 µM and a TGI (A549 NSCLC) of over 100 µM. For the same compound, the GI50 (U251 CNS) was 2.9 µM, the TGI (U251 CNS) was over 100 µM and the GI50 (MDA-MB-231 breast) was 2.66 µM. For the same compound, the TGI (MDA-MB-231 breast) was over 100 µM, the GI50 (UACC-257 melanoma) was 9.11 µM and the TGI (UACC-257 melanoma) was over 100 µM. For the same compound, the GI50 (SF-268 CNS) was 12.5 µM, the TGI (SF-268 CNS) was over 100 µM and the GI50 (SN12C renal) was 1.95 µM. For the same compound, the TGI (SN12C renal) was over 100 µM, the GI50 (ACHN renal) was 8.28 µM and the TGI (ACHN renal) was over 100 µM. For the same compound, the GI50 (BT-549 breast) was 1.15 µM, the TGI (BT-549 breast) was 8.4 µM and the GI50 (MOLT-4 leukemia) was 1.21 µM. The TGI (MOLT-4 leukemia) was over 100 µM, the GI50 (OVCAR-4 ovarian) was 21.3 µM and the TGI (OVCAR-4 ovarian) was over 100 µM. For the same compound, the GI50 (SK-MEL-5 melanoma) was 2.8 µM, the TGI (SK-MEL-5 melanoma) was over 100 µM and the GI50 (SR leukemia) was 0.534 µM. The TGI (SR leukemia) was over 100 µM, the GI50 (NCI-H226 lung) was 9.17 µM and the TGI (NCI-H226 lung) was over 100 µM. The GI50 (NCI-H23 lung) was 0.686 µM and the TGI (NCI-H23 lung) was over 100 µM.
